# Laboratory results published in patent US11096891B2, “Hybrid muco-adhesive delivery systems and use thereof” (TECHNION RESEARCH & DEVELOPMENT FOUNDATION LIMITED, priority 2016, dated 2021).
# What was measured:
# [1] = Liposome release from alginate pastes spread on tongue tissue; assay type: physicochemical; conditions: 3% Ca+2-Ba+2 cross-linked alginate paste, simulated saliva buffer pH 6.8, 37° C.
# Description: Alginate-fluorescein containing liposomes pastes were prepared by dissolving 30, 40 or 50 mg alginate-fluorescein in 0.4 mL DDW and 0.6 mL of fluorescently labeled liposome solution. The mixtures were stirred until homogenous viscous solutions were achieved. Alginate-fluorescein paste (50 μL) was spread on porcine's tongue tissue (1 cm×1 cm) which was glued with cyanoacrylate glue to a weight and placed in a vail with […] saliva buffer, pH 6.8. One sample (paste on a tissue) was inserted into dialysis bag and the absorbance of this sample was used as a blank. The vail was immersed in a shaking water/ethylene-glycole bath at 37° C. and 25 rpm. An aliquot (200 μL) of eluted liposome medium was removed for quantification; this volume was replaced with fresh buffer. The release of alginate-fluorescein and liposome was quantified by measuring the fluorescence (alginate-fluorescein: λex420 nm, λem530 nm, labeled liposome: λex530 nm, […]) of the release media at different time points.
# pastes were prepared by dissolving 40 mg alginate or alginate-SH, or 300 mg alginate-PEGAc.
# Alginate paste (50 μL) was spread on a piece of tissue which was glued with cyanoacrylte glue to a weight and placed in a vail with 10 ml 0.01M PBS, pH=6.8. […] An aliquot (200 μL) of eluted liposome medium was removed for quantification; this volume was replaced with fresh buffer. […]
# CAL-27 cells [2] = assay: CellTiter-Glo viability, alginate pastes on permeable tissue culture inserts; assay type: cell-based, human; conditions: alginate paste hybrid system
# Description: In order to examine the effectivity of the proposed hybrid system, alginate pastes with empty liposomes, free drug and drugs loaded liposomes were tested for their effect on CAL-27 cells using permeable tissue culture inserts. Cell viability was determined using the Cell Titer-Glo® assay (see Table 6 below showing the relative cell viability obtained after 24 and 48 hr of treatment with hybrid system and FIG. 25).
# [3] = Release of fluorescent dye from alginate paste on porcine tongue under shear flow; assay type: physicochemical; conditions: after two hours, 0.01M PBS pH 6.8, 37° C.
# Excerpt: A home-made apparatus was designed, based on a flow cell for assessing the mucoadhesion of pastes and viscous polymer solutions under shear flow conditions. The experiment was set up by mixing viscous solution of alginate with the fluorescent dye solution, by that, the fluorescent dye was non-covalently attached to alginate. The pastes were spread on a slice of porcine tongue simulating the target tissue. The tissue holding the paste was placed in a vial and was subject to shear flow while immersed in PBS solution (see FIG. 1A).
# CAL-27 cells [4] = assay: MTT cell viability assay; assay type: cell-based, human; conditions: 24 and 48 hr
# Description: The cytotoxicity of chemotherapeutic drugs to CAL-27 cells was determined using the MTT assay. Cells were plated in 96-well plate in density of 50,000 cells per well in a total volume of 200 μl medium. After 24 hours the cells were treated with different drugs and liposomes for 24 h and 48 h. All experiments were done in quadruplicates.
# Cell viability was evaluated by MTT assay, a colorimetric assay based on the ability of viable cells to reduce a soluble yellow MTT substrate to a blue formazan crystal by mitochondrial succinate dehydrogenase activity of viable cells. This test is a good index of mitochondrial activity and thus of cell viability. After 24 or 48 hr of treatment, the medium was aspirated, and 100 μL of MTT, 1 mg/mL in PBS were added to each well. After MTT addition the plates were covered and returned to the incubator at 37° C. for 2 hr, the optimal time for formazan product formation. […] The absorbance was measured at 570 nm and the background absorbance measured at 690 nm.
# In exemplary procedures, alginate gels incorporating either empty or doxorubicin loaded liposomes were prepared as described above, in a volume of 100 μL each with liposome proportion of 6.7%, 16.7% and 33.3% (v/v). […] Viability was measured using the MTT assay. […]
structure (smiles),measurement,setting,value
"COc1cccc2c1C(=O)c1c(O)c3c(c(O)c1C2=O)C[C@@](O)(C(=O)CO)C[C@@H]3O[C@H]1C[C@H](N)[C@H](O)[C@H](C)O1 [Free Doxorubicin, doxorubicin]",Release of doxorubicin from cross-linked pastes,[1],"similar, and sustained"
same,Relative cell viability 24 h,CAL-27 cells [2]; 24 h,0.04 ± 0.008
same,Relative cell viability 48 h,CAL-27 cells [2]; 48 h,0.00 ± 0.000
"CCN(CC)c1ccc2c(-c3ccc(S(=O)(=O)O)cc3S(=O)(=O)[O-])c3ccc(=[N+](CC)CC)cc-3oc2c1 [fluorescent marker, sulforhodamine B]",Release of fluorescent marker to external PBS solution,[3],completely released
"O=c1[nH]cc(F)c(=O)[nH]1 [5-FU free drug, 5-fluorouracil]","Toxicity to cancer cells, drug loaded liposomes versus free drug",CAL-27 cells [4],slower in action and therefore seemed less efficient within the 48 hr experiment
